Experimental data published in patent US8324199B2, “Pyridazine derivatives as factor xia inhibitors” (Bristol-Myers Squibb Company, priority 2008, dated 2012).

Each molecule was assayed against T1, purified human Factor XIa (Homo sapiens, UniProt P03951) (assay: Factor XIa assay (chromogenic substrate hydrolysis, Ki)). Details: purified human Factor XIa 75-200 pM, substrate S-2366, 50 mM HEPES pH 7.4.
T1 construct: purchased Haematologic Technologies
T1 sequence (P03951 388-625 limits assumed): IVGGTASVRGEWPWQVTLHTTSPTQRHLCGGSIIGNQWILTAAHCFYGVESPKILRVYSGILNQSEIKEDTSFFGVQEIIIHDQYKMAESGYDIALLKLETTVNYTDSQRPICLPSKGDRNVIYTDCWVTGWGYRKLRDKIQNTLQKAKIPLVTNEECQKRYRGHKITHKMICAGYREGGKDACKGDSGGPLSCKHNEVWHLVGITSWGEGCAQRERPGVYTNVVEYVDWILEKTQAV
T1 sequence (P03951 19-387 partner limits assumed): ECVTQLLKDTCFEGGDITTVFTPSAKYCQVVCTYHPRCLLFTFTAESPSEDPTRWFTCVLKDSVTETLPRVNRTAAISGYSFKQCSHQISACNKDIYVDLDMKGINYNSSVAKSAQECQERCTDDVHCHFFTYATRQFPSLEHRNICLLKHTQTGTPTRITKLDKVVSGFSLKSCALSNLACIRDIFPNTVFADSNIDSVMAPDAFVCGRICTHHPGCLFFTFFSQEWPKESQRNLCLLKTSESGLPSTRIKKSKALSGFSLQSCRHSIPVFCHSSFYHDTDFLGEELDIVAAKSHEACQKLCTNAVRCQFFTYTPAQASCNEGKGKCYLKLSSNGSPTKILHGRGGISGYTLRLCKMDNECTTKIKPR
Format: biochemical
Description: The effectiveness of compounds of the present invention as inhibitors of the coagulation factors XIa, VIIa, IXa, Xa, XIIa, plasma kallikrein or thrombin, can be determined using a relevant purified serine protease, respectively, and an appropriate synthetic substrate. The rate of hydrolysis of the chromogenic or fluorogenic substrate by the relevant serine protease was measured both in the absence and presence of compounds of the present invention. […] A decrease in the rate of absorbance or fluorescence change in the presence of inhibitor is indicative of enzyme inhibition. Such methods are known to one skilled in the art. The results of this assay are expressed as the inhibitory constant, Ki.
Factor XIa determinations were made in 50 mM HEPES buffer at pH 7.4 containing 145 mM NaCl, 5 mM KCl, and 0.1% PEG 8000 (polyethylene glycol; JT Baker or Fisher Scientific). Determinations were made using purified human Factor XIa at a final concentration of 75-200 pM (Haematologic Technologies) and the synthetic substrate S-2366 (pyroGlu-Pro-Arg-pNA; Chromogenix or AnaSpec) at a concentration of 0.0002-0.001 M.
The Michaelis constant, Km, for substrate hydrolysis by each protease, was determined at 25° C. using the method of Lineweaver and Burk. Values of Ki were determined by allowing the protease to react with the substrate in the presence of the inhibitor. Reactions were allowed to go for periods of 20-180 minutes (depending on the protease) and the velocities (rate of absorbance or fluorescence change versus time) were measured. The following relationships were used to calculate Ki values: (vo−vs)/vs=I/(Ki(1+S/Km)) for a competitive inhibitor with one binding site; or vs/vo=A+((B−A)/1+((IC50/(I)^n))); and Ki=IC50/(1+S/Km) for a competitive inhibitor where: […]
`CCN1CCC(C[C@H](NC(=O)/C=C/c2cc(Cl)ccc2-n2cnnn2)c2cc(-c3ccc(NC(=O)OC)cc3)c(Cl)nn2)C1` (stereo partly drawn) [Example 116, Methyl 4-(3-chloro-6-((1S)-1-((E)-3-(5-chloro-2-(1 H-tetrazol-1-yl)phenyl)acrylamido)-2-(1-ethylpyrrolidin-3-yl)ethyl)pyridazin-4-yl)phenylcarbamate] showed a Ki of 0.327 µM.
`COC(=O)Nc1ccc(-c2cc([C@H](Cc3cscn3)NC(=O)/C=C/c3cc(Cl)ccc3-n3cnnn3)nnc2Cl)cc1` [Example 123, (S,E)-Methyl 4-(3-chloro-6-(1-(3-(5-chloro-2-(1H-tetrazol-1-yl)phenyl)acrylamido)-2-(thiazol-4-yl)ethyl)pyridazin-4-yl)phenylcarbamate] was tested, and the Ki was 0.057 µM.
In the case of `COC(=O)Nc1ccc(-c2cc([C@H](Cc3cc([S+](C)[O-])n(C)n3)NC(=O)/C=C/c3cc(Cl)ccc3-n3cnnn3)n[nH]c2=O)cc1` (stereo partly drawn) [Example 132, (S,E)-Methyl 4-(6-(1-(3-(5-chloro-2-(1H-tetrazol-1-yl)phenyl)acrylamido)-2-(1-methyl-5-(methylsulfinyl)-1H-pyrazol-3-yl)ethyl)-3-oxo-2,3-dihydropyridazin-4-yl)phenylcarbamate], the Ki is reported as 0.076 µM.
For `COC(=O)Nc1ccc(-c2cc([C@H](CC3CN(C(=O)OC(C)(C)C)C3)NC(=O)/C=C/c3cc(Cl)ccc3-n3cnnn3)n[nH]c2=O)cc1` [Example 136, (S,E)-tert-Butyl 3-(2-(3-(5-chloro-2-(1H-tetrazol-1-yl)phenyl)acrylamido)-2-(5-(4-(methoxycarbonylamino)phenyl)-6-oxo-1,6-dihydropyridazin-3-yl)ethyl)azetidine-1-carboxylate], the Ki was 0.503 µM.
In the case of `COC(=O)Nc1ccc(-c2cc([C@H](CC(=O)OC(C)(C)C)NC(=O)/C=C/c3cc(Cl)ccc3-n3cnnn3)n[nH]c2=O)cc1` [Example 146, (S,E)-tert-Butyl 3-(3-(5-chloro-2-(1H-tetrazol-1-yl)phenyl)acrylamido)-3-(5-(4-(methoxycarbonylamino)phenyl)-6-oxo-1,6-dihydropyridazin-3-yl)propanoate], the Ki is reported as 0.0055 µM.
`COC(=O)Nc1ccc(-c2cc([C@H](CC3CCN(C(=O)OCc4ccccc4)C3)NC(=O)/C=C/c3cc(Cl)ccc3-n3cnnn3)n[nH]c2=O)cc1` (stereo partly drawn) [Example 147, Benzyl 3-((S)-2-((E)-3-(5-chloro-2-(1H-tetrazol-1-yl)phenyl)acrylamido)-2-(5-(4-(methoxycarbonylamino)phenyl)-6-oxo-1,6-dihydropyridazin-3-yl)ethyl)pyrrolidine-1-carboxylate] was tested, and the Ki was 5.15 µM.
Work on `COC(=O)Nc1ccc(-c2cc([C@H](CC3CCCN(S(C)(=O)=O)C3)NC(=O)/C=C/c3cc(Cl)ccc3-n3cnnn3)n[nH]c2=O)cc1` (stereo partly drawn) [Example 154, Methyl 4-(6-((1S)-1-((E)-3-(5-chloro-2-(1H-tetrazol-1-yl)phenyl)acrylamido)-2-(1-(methylsulfonyl)piperidin-3-yl)ethyl)-3-oxo-2,3-dihydropyridazin-4-yl)phenylcarbamate] yielded a Ki of 0.176 µM.
